Calls of active or inactive are those of the source. The calls are words filed in the database; no cut-off is given here.
How the values were obtained:
[1] = target: Sodium-dependent noradrenaline transporter (Homo sapiens, UniProt P23975); assay: GPCRScan assay: inhibition of NET; set-up: radioligand conc. used [nm] 1.3 – 5.0, parental cells stable HEK
[2] = target: T1, Sodium-dependent dopamine transporter (Homo sapiens, UniProt Q01959); assay: GPCRScan assay: inhibition of DAT; set-up: radioligand conc. used [nm] 3.6 – 16.0, parental cells stable HEK
T1 sequence (Q01959 whole entry): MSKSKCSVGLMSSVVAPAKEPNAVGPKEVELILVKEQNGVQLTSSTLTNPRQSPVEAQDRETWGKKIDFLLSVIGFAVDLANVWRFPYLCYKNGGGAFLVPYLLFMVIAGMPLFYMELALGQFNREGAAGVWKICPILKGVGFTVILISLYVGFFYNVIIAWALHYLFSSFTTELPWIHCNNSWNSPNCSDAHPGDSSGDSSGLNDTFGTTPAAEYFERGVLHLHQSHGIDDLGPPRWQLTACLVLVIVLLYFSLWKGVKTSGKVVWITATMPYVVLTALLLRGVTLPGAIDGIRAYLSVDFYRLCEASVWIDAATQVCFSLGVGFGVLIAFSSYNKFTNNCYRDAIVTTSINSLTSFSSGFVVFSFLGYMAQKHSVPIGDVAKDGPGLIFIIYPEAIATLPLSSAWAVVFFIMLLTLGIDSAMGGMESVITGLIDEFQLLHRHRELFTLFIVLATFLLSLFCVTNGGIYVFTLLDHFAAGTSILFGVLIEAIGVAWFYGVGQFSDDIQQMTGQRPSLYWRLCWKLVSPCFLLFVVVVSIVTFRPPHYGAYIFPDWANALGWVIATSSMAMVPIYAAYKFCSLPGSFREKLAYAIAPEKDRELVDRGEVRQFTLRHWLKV

Histamine H2 receptor = Histamine H2 receptor (Homo sapiens, UniProt P25021); assay: GPCRScan assay: inhibition of H2; set-up: radioligand conc. used [nm] 0.02 – 0.05, parental cells Stable HEK
[3] = target: T1, Sodium-dependent dopamine transporter; assay: Dopamine-uptake assay
[4] = target: Sodium-dependent serotonin transporter (Homo sapiens, UniProt P31645); assay: Serotonin-uptake assay
[5] = target: RAC-alpha serine/threonine-protein kinase (Homo sapiens) (UniProt P31749); conditions: Compound concentration 1000.0 nM
RAC-alpha serine/threonine-protein kinase (Homo sapiens), sequence (P31749 whole entry): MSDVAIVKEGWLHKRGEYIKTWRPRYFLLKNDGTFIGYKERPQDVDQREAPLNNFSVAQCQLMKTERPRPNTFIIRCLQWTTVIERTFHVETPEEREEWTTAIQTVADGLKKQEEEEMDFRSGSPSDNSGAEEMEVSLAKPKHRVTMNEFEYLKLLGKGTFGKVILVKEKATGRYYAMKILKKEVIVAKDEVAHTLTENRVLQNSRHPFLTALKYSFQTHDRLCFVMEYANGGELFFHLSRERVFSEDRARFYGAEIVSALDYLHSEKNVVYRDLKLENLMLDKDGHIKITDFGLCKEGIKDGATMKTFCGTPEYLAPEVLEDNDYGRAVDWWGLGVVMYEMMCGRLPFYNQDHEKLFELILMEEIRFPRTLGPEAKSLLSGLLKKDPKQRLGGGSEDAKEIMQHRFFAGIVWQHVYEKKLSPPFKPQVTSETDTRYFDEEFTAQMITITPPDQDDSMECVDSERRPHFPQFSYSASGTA

[6] = target: Calcium/calmodulin-dependent protein kinase type IV (Homo sapiens) (UniProt Q16566); conditions: Compound concentration 1000.0 nM
[7] = target: Tyrosine-protein kinase Fer (Homo sapiens) (UniProt P16591); conditions: Compound concentration 1000.0 nM
[8] = target: Serine/threonine-protein kinase ICK (Homo sapiens) (UniProt Q9UPZ9); conditions: Compound concentration 1000.0 nM
[9] = target: Mast/stem cell growth factor receptor Kit (Homo sapiens) (UniProt P10721); conditions: Compound concentration 1000.0 nM
Mast/stem cell growth factor receptor Kit (Homo sapiens), sequence (P10721 whole entry): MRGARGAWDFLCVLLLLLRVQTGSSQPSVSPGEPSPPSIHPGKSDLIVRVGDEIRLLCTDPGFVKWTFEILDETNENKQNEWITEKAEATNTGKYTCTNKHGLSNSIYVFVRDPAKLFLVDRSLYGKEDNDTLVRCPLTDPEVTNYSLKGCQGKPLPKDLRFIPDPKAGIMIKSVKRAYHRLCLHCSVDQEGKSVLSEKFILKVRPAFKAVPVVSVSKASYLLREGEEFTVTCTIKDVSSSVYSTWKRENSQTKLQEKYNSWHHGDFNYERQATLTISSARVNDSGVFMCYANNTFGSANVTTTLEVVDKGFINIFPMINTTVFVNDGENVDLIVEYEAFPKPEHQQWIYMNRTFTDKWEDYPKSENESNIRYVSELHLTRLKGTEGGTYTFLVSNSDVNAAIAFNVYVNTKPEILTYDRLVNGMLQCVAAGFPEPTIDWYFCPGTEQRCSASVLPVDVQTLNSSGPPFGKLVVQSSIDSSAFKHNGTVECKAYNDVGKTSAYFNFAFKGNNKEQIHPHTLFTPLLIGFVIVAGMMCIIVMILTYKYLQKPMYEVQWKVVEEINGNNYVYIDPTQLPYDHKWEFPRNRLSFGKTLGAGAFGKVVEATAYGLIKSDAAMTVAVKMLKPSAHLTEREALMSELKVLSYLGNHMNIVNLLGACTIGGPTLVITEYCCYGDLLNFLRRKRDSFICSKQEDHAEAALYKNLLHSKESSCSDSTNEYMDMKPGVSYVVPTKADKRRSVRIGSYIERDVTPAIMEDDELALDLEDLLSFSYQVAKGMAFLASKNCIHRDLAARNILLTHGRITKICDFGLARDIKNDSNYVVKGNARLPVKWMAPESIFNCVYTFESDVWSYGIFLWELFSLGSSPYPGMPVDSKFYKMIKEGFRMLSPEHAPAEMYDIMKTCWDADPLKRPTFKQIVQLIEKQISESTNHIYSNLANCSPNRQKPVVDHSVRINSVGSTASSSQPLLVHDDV

[10] = target: Mitogen-activated protein kinase kinase kinase 1 (Homo sapiens) (UniProt Q13233); conditions: Compound concentration 1000.0 nM
Mitogen-activated protein kinase kinase kinase 1 (Homo sapiens), sequence (Q13233 whole entry): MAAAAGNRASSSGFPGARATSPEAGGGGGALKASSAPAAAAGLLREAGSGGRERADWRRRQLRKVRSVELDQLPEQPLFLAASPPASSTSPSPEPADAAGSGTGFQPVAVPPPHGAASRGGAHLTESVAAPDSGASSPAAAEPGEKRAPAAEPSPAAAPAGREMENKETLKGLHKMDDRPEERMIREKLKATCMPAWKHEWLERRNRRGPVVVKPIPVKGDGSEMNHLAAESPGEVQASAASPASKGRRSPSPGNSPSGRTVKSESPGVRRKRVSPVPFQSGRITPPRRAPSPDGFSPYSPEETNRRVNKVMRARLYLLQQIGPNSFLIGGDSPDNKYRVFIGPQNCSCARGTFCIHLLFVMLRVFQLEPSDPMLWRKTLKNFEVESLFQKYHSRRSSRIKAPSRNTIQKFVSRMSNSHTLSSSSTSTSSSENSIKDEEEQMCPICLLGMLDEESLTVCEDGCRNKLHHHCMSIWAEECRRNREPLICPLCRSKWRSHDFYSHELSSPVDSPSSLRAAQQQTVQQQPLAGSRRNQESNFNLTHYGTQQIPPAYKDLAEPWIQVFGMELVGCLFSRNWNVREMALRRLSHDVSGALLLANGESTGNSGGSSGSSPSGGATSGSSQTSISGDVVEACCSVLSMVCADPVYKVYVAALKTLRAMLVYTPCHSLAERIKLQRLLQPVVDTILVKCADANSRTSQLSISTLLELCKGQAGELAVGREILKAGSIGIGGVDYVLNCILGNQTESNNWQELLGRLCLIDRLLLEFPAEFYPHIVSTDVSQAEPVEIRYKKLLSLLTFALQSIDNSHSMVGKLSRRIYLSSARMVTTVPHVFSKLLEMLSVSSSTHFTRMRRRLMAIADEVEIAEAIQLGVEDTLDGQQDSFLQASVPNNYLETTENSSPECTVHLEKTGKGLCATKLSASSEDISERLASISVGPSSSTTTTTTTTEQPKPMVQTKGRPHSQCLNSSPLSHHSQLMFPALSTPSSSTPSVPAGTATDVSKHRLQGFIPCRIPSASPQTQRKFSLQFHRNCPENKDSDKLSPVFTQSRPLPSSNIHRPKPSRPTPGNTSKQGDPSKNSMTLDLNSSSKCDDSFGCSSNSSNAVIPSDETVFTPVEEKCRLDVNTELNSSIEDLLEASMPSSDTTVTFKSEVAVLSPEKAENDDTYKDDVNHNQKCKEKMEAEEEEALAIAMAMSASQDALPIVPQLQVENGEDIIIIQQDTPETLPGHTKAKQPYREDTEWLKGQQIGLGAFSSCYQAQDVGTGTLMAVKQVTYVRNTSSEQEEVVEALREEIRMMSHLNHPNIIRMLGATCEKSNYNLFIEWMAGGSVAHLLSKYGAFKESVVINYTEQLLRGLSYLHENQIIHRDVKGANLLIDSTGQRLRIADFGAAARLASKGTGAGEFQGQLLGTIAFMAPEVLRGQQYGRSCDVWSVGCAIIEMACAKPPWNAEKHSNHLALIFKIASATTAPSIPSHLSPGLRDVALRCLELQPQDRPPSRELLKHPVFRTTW

[11] = target: Dual specificity mitogen-activated protein kinase kinase 2 (Homo sapiens) (UniProt P36507); conditions: Compound concentration 1000.0 nM
[12] = target: Serine/threonine-protein kinase 38-like (Homo sapiens) (UniProt Q9Y2H1); conditions: Compound concentration 1000.0 nM
[13] = target: Cyclin-dependent kinase 2 homolog (Plasmodium falciparum (isolate 3D7)) (UniProt P61075); conditions: Compound concentration 1000.0 nM
Cyclin-dependent kinase 2 homolog (Plasmodium falciparum (isolate 3D7)), sequence (P61075 whole entry, canonical isoform): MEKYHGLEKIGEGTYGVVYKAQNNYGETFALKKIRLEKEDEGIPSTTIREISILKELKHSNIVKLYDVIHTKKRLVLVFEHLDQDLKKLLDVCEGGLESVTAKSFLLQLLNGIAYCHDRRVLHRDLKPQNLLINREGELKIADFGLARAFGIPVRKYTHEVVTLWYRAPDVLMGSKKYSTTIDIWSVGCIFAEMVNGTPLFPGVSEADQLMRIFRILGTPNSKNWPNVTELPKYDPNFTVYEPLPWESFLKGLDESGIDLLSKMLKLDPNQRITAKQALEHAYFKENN

[14] = target: Phosphatidylinositol 4,5-bisphosphate 3-kinase catalytic subunit delta isoform (Homo sapiens) (UniProt O00329); conditions: Compound concentration 1000.0 nM
Phosphatidylinositol 4,5-bisphosphate 3-kinase catalytic subunit delta isoform (Homo sapiens), sequence (O00329 whole entry, canonical isoform): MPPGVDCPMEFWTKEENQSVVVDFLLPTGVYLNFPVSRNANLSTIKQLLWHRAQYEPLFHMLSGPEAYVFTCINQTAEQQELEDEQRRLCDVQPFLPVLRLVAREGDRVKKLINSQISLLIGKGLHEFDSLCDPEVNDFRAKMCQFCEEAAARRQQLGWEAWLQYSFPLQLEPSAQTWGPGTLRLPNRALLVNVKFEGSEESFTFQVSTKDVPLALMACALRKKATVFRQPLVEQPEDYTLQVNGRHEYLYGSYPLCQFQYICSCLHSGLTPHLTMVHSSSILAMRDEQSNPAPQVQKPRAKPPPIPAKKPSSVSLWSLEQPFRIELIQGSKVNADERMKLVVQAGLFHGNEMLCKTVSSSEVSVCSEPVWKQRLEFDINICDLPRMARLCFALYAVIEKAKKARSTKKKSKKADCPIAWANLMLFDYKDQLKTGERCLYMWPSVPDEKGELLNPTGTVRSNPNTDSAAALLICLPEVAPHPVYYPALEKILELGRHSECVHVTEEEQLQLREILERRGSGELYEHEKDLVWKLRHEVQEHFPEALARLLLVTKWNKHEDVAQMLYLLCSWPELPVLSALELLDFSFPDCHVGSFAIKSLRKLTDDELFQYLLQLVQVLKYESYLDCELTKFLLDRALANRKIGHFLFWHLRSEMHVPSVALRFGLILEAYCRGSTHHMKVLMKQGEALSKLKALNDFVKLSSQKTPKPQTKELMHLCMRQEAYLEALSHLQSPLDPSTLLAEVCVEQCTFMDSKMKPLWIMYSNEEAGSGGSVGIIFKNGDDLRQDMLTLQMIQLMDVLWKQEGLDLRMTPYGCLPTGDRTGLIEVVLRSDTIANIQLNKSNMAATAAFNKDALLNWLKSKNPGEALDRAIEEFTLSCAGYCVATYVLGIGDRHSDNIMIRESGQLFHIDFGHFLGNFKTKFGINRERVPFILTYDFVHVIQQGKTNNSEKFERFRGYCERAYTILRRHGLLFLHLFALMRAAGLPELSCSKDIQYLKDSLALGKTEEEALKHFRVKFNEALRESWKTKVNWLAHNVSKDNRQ

[15] = target: Phosphatidylinositol 4-kinase beta (Homo sapiens) (UniProt Q9UBF8); conditions: Compound concentration 1000.0 nM
[16] = target: Serine/threonine-protein kinase SIK3 (Homo sapiens) (UniProt Q9Y2K2); conditions: Compound concentration 1000.0 nM
[17] = target: Ribosomal protein S6 kinase alpha-6 (Homo sapiens) (UniProt Q9UK32); conditions: Compound concentration 1000.0 nM
[18] = target: Ribosomal protein S6 kinase beta-1 (Homo sapiens) (UniProt P23443); conditions: Compound concentration 1000.0 nM
[19] = target: Serine/threonine-protein kinase 25 (Homo sapiens) (UniProt O00506); conditions: Compound concentration 1000.0 nM
[20] = target: 5-hydroxytryptamine receptor 1E (Homo sapiens) (UniProt P28566); conditions: Compound concentration 10.0 uM
[21] = target: Alpha-1A adrenergic receptor (Homo sapiens) (UniProt P35348); conditions: Compound concentration 10.0 uM
[22] = target: Alpha-1B adrenergic receptor (Homo sapiens) (UniProt P35368); conditions: Compound concentration 10.0 uM
[23] = target: Beta-2 adrenergic receptor (Homo sapiens) (UniProt P07550); conditions: Compound concentration 10.0 uM
[24] = target: Muscarinic acetylcholine receptor M1 (Homo sapiens) (UniProt P11229); conditions: Compound concentration 10.0 uM
[25] = target: Muscarinic acetylcholine receptor M2 (Homo sapiens) (UniProt P08172); conditions: Compound concentration 10.0 uM
[26] = target: Beta-3 adrenergic receptor (Homo sapiens) (UniProt P13945); conditions: Compound concentration 10.0 uM
[27] = target: Alpha-1D adrenergic receptor (Homo sapiens) (UniProt P25100); conditions: Compound concentration 10.0 uM
D(4) dopamine receptor = D(4) dopamine receptor (Homo sapiens, UniProt P21917); assay: GPCRScan assay: inhibition of D4; set-up: radioligand conc. used [nm] 0.6 – 1.7, parental cells Stable HEK
[28] = target: Alpha-1A adrenergic receptor (Homo sapiens, UniProt P35348); assay: GPCRScan assay: inhibition of Alpha1A; set-up: radioligand conc. used [nm] 0.2 - 1.0, parental cells stable HEK
[29] = target: Alpha-1B adrenergic receptor (Homo sapiens, UniProt P35368); assay: GPCRScan assay: inhibition of Alpha1B; set-up: radioligand conc. used [nm] 0.3 – 1.0, parental cells stable HEK
[30] = GPCRScan assay: inhibition of GABA/PBR; set-up: species or system Rattus norvegicus; radioligand conc. used [nm] 0.3 – 2.0, parental cells brain tissue
[31] = target: 5-hydroxytryptamine receptor 1D (Homo sapiens) (UniProt P28221); conditions: Compound concentration 10.0 uM

Structure (SMILES) | residual activity [5] [%] | residual activity [6] [%] | residual activity [7] [%] | residual activity [8] [%] | residual activity [9] [%] | residual activity [10] [%] | residual activity [11] [%] | residual activity [12] [%] | residual activity [13] [%] | residual activity [14] [%] | residual activity [15] [%] | residual activity [16] [%] | residual activity [17] [%] | residual activity [18] [%] | residual activity [19] [%] | also measured
COc1cc(-c2cn([C@H]3CCc4c(F)cccc4N(CC(F)(F)F)C3=O)nn2)ccc1-n1cnc(C)c1 | 96 | 100 | 100 | 65 | 100 | 100 | 100 | 78 | 100 | 100 | 79 | 100 | 100 | 100 | 100 | Ki [1]: 808 nM; Ki ([2]; read-out: Ki): 191 nM; Ki ([2]; read-out: pKi (converted)): 200 nM; Ki (Histamine H2 receptor): 975 nM; IC50 [3]: 536 nM (active); IC50 [4]: 13 nM (active); inhibition [20]: -8.76%; inhibition [21]: 14.1%; inhibition [22]: 19.9%; inhibition [23]: -5.61%; inhibition [24]: 8.88%; inhibition [25]: 14.4%; inhibition [26]: 15.8%; inhibition [27]: 2.11%
COc1cc(-c2cn([C@H]3CCc4ccccc4N(CC(F)(F)F)C3=O)nn2)ccc1-n1ccc(C)n1 | 97 | 100 | 100 | 63 | 96 | 72 | 98 | 75 | 100 | 100 | 87 | 92 | 91 | 100 | 100 | Ki (D(4) dopamine receptor): 4950 nM; Ki [28]: 1390 nM; Ki [29]: 10000 nM; Ki [30]: 5070 nM; pKi [30]: 5.36; inhibition [31]: 11.3%
